The values below are quoted from earlier work in patent publication US11712576B2, “Method and apparatus for cancer treatment” (Minnesota Medical Physics LLC, priority 2018, dated 2023).

For data set [1] the following is noted: oral doses of 4 mg twice a day over a week period.
The next data set deals with tumor. The following applies: concentration of 100 μM.
In data set [2] the test system is melanoma, colon, prostate carcinoma, lymphoma, pancreatic and hepatocellular carcinomas.
For data set [3], the system named is human glioblastoma U87MG cancer cells. As to conditions: agonist 100 nM combined with EFS (Helmholtz coils).
The next data set has as its target adenosine receptor A2aAR (Homo sapiens, UniProt P29274).
In another data set the test system is lung cancer cells Lu-65. As to conditions: highest concentrations in mM range (0.01-10 mM tested), 48 hours.

The structures appear in SMILES notation.

adenosine receptor A2aAR, sequence (P29274 whole entry): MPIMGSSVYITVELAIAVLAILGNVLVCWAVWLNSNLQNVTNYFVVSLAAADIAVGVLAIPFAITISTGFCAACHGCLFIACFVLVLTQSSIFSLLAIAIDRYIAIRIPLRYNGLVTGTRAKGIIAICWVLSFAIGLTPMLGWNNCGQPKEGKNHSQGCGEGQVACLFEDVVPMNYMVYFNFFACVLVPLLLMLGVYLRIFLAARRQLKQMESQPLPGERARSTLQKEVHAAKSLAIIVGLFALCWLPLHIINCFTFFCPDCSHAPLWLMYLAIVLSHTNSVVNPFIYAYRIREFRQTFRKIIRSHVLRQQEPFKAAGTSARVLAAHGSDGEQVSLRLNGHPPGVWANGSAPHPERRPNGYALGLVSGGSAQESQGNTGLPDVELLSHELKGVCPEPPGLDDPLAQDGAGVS

Consider `CNC(=O)[C@H]1O[C@@H](n2cnc3c(NCc4cccc(I)c4)ncnc32)[C@H](O)[C@@H]1O` [CF101], for which the tolerability entry in data set [1] was “well tolerated”. Further, the “apoptosis of cancer cells (normal cells refractory)” value in the data set with cancer cells is “induce apoptosis of cancer cells”.

Regarding `CNC(=O)[C@H]1O[C@@H](n2cnc3c(NCc4cccc(I)c4)nc(Cl)nc32)[C@H](O)[C@@H]1O` [CI-IB-MECA], in the data set with tumor, the “effect on tumor growth” value was “only a slowdown of tumor growth”. Also, the “effect on metastases, migrating mobility and proliferation of cancer cells” value in data set [2] is “reduction of metastases, migrating mobility of cancer cells and inhibition of proliferation”. Further, the “increase in apoptosis attributed to EFS over agonist alone” value in data set [3] is recorded as 25-30%. Further, the “apoptosis of cancer cells (normal cells refractory)” value with cancer cells is “induce apoptosis of cancer cells”.

`CNC(=O)[C@H]1O[C@@H](n2cnc3c(NCc4cccc(I)c4)ncnc32)[C@H](O)[C@@H]1O` [IB-MECA]: in data set [2], the “effect on metastases, migrating mobility and proliferation of cancer cells” value was “reduction of metastases, migrating mobility of cancer cells and inhibition of proliferation”.

As for `CNC(=O)c1cnn(-c2nc(N)c3ncn([C@@H]4O[C@H](CO)[C@@H](O)[C@H]4O)c3n2)c1` [Lexiscan], the side effects result in the data set with BBB (doses used for cardiac perfusion) is given as “strong, sometimes life-threatening side effects”. The “permeation of the BBB” value with BBB (in vivo) is given as “substantial permeation of the BBB”.

`Nc1nc2c(cnn2CCc2ccccc2)c2nc(-c3ccco3)nn12` [SCH-58261]: on adenosine receptor A2aAR, the “selectivity for A2aAR over the other adenosine receptors” value was “more than 50 fold”.

Turning to `Nc1ncnc2c1ncn2[C@@H]1O[C@H](CO)[C@@H](O)[C@H]1O` [adenosine], the cancer cells destroyed in the data set with lung cancer cells Lu-65 is 100%.
